Values quoted from earlier work, collected in publication PMC4875922 (Drugs in R&D, 2016).

Tests used:
[1] = not given; remark: listed apart in the source

O=C(Nc1cccnn1)N1CCC(=Cc2cccc(Oc3ccc(C(F)(F)F)cn3)c2)CC1 [PF-04457845]
effect in phase II study in osteoarthritic pain: without effect | linearity of pharmacokinetics [1]: non-linear pharmacokinetics | tolerability ([1]; at doses that cause maximal inhibition of FAAH and elevation of plasma endocannabinoids): well tolerated
